Laboratory results published in EP1832576A1, “4-Biarylyl-1-phenolyzetidin-2-ones” (Microbia Inc., priority 2003, dated 2005).

Each compound was assayed on cholesterol absorption from the intestine (assay: In Vivo Assay of Hypolipidemic Agents using the Rat Cholesterol Absorption Model). Settings: po, Table 1, footnote 1, perorally, 10 mg/kg, 3H levels in serum three hours after 3H-cholesterol.
Set-up: species or system Female Sprague-Dawley rats
Procedure: In Vivo Assay of Hypolipidemic Agents using the Rat Cholesterol Absorption Model. This model is based on models described by Burnett et al (2002), Bioorg. Med. Chem. Lett. 2002 Feb 11;12(3):315-8 and J. Lipid Res. 1999 Oct;40(10):1747-57. Female Sprague-Dawley rats weighing 150-250g are separated into […] and fasted overnight. The animals (4-6/group) are dosed perorally with 300µL test compounds in olive oil or suitable vehicle. Thirty minutes later, 3-5 microCuries ^3H-cholesterol per rat are delivered perorally in 300 µL olive oil. After three hours, 200 µL serum is collected, vortexed with scintillation fluid, and measured for radioactivity in a scintillation counter. Percent inhibition is defined as 100*(1-Ctest/Cctrl), where Ctest and Cctrl refer to ^3H levels in serum for the test compound and for the vehicle only control, respectively. Percent inhibition values are reported for a fixed dose. The ED50 is the dose at which the half-maximal effect on serum ^3H levels is observed for a given test compound.
Representative compounds of the invention were tested in the Rat Cholesterol Absorption model above.

Row | SMILES | inhibition at 10 mg/kg
1 | O=C1[C@H](CC[C@H](O)c2ccc(F)cc2)[C@@H](c2ccc(-c3cccc([N+](=O)[O-])c3)cc2)N1c1ccc(F)cc1 [Example 23, (3R,4S)-1-(4-fluorophenyl)-3-[(3S)-3-(4-fluorophenyl)-3-hydroxypropyl]-4-(3'-nitrobiphenyl-4-yl)azetidin-2-one] | 54%
2 | CC(=O)Nc1cccc(-c2ccc([C@@H]3[C@@H](CC[C@H](O)c4ccc(F)cc4)C(=O)N3c3ccc(F)cc3)cc2)c1 [Example 26, N-(4'-{(2S,3R)-1-(4-fluorophenyl)-3-[(3S)-3-(4-fluorophenyl)-3-hydroxypropyl]-4-oxoazetidin-2-yl}biphenyl-3-yl)acetamide] | 76%

Same assay, conditions: po, Table 1, footnote 3, perorally, 5 mg/kg, 3H levels in serum three hours after 3H-cholesterol

Row | SMILES | inhibition at 5 mg/kg
3 | N#Cc1cccc(-c2ccc([C@@H]3[C@@H](CC[C@H](O)c4ccc(F)cc4)C(=O)N3c3ccc(F)cc3)cc2)c1 [Example 14, 4'-{(2S,3R)-1-(4-fluorophenyl)-3-[(3S)-3-(4-fluorophenyl)-3-hydroxypropyl]-4-oxoazetidin-2-yl}biphenyl-3-carbonitrile] | 32%

Same assay, conditions: po, Table 1, perorally, 1 mg/kg, 3H levels in serum three hours after 3H-cholesterol, versus vehicle only control

Row | SMILES | inhibition at 1 mg/kg
4 | CN(C)c1cccc(-c2ccc([C@@H]3[C@@H](CC[C@H](O)c4ccc(F)cc4)C(=O)N3c3ccc(F)cc3)cc2)c1 [Example 83, (3R,4S)-4-[3'-(dimethylamino)biphenyl-4-yl]-1-(4-fluorophenyl)-3-[(3 S)-3-(4-fluorophenyl)-3-hydroxypropyl]azetidin-2-one] | 38%
5 | COc1cc(F)cc(-c2ccc([C@@H]3[C@@H](CC[C@H](O)c4ccc(F)cc4)C(=O)N3c3ccc(F)cc3)cc2)c1 [Example 111, (3R,4S)-4-(3'-fluoro-5'-methoxybiphenyl-4-yl)-1-(4-fluorophenyl)-3-[(3S)-3-(4-fluorophenyl)-3-hydroxypropyl]azetidin-2-one] | 72%
6 | C=Cc1ccc(-c2ccc([C@@H]3[C@@H](CC[C@H](O)c4ccc(F)cc4)C(=O)N3c3ccc(F)cc3)cc2)cc1 [Example 84, (3R,4S)-1-(4-fluorophenyl)-3-[(3S)-3-(4-fluorophenyl)-3-hydroxypropyl]-4-(4'-vinylbiphenyl-4-yl)azetidin-2-one] | 51%
7 | Cc1cc(C)cc(-c2ccc([C@@H]3[C@@H](CC[C@H](O)c4ccc(F)cc4)C(=O)N3c3ccc(F)cc3)cc2)c1 [Example 90, (3R,4S)-4-(3',5'-dimethylbiphenyl-4-yl)-1-(4-fluorophenyl)-3-[(3S)-3-(4-fluorophenyl)-3-hydroxypropyl]azetidin-2-one] | 27%
8 | O=C1[C@H](CC[C@H](O)c2ccc(F)cc2)[C@@H](c2ccc(-c3ccc([C@H]4O[C@@H](CO)[C@H](O)[C@@H](O)[C@@H]4O)cc3)cc2)N1c1ccc(F)cc1 [Example 116, (1R)-1,5-anhydro-1-(4'-{(2S,3R)-1-(4-fluorophenyl)-3-[(3S)-3-(4-fluorophenyl)-3-hydroxypropyl]-4-oxoazetidin-2-yl}biphenyl-4-yl)-L-glucitol] | 81%
9 | CO[C@H]1O[C@H](COc2cccc(-c3ccc([C@@H]4[C@@H](CC[C@H](O)c5ccc(F)cc5)C(=O)N4c4ccc(F)cc4)cc3)c2)[C@@H](O)[C@H](O)[C@H]1O [Example 77, methyl 6-O-(4'-{(2S,3R)-1-(4-fluorophenyl)-3-[(3S)-3-(4-fluorophenyl)-3-hydroxypropyl]-4-oxoazetidin-2-yl}biphenyl-3-yl)-α-D-glucopyranoside] | 70%
10 | O=C1[C@H](CC[C@H](O)c2ccc(F)cc2)[C@@H](c2ccc(-c3ccc(O)cc3O)cc2)N1c1ccc(F)cc1 [Example 108, (3R,4S)-4-(2',4'-dihydroxybiphenyl-4-yl)-1-(4-fluorophenyl)-3-[(3S)-3-(4-fluorophenyl)-3-hydroxypropyl]azetidin-2-one] | 69%
11 | O=Cc1cccc(-c2ccc([C@@H]3[C@@H](CC[C@H](O)c4ccc(F)cc4)C(=O)N3c3ccc(F)cc3)cc2)c1 [Example 13, 4'-{(2S,3R)-1-(4-fluorophenyl)-3-[(3S)-3-(4-fluorophenyl)-3-hydroxypropyl]-4-oxoazetidin-2-yl}biphenyl-3-carbaldehyde] | 70%
12 | CSc1cccc(-c2ccc([C@@H]3[C@@H](CC[C@H](O)c4ccc(F)cc4)C(=O)N3c3ccc(F)cc3)cc2)c1 [Example 82, (3R,4S)-1-(4-fluorophenyl)-3-[(3S)-3-(4-fluorophenyl)-3-hydroxypropyl]-4-[3'-(methylthio)biphenyl-4-yl]azetidin-2-one] | 28%
13 | O=C1[C@H](CC[C@H](O)c2ccc(F)cc2)[C@@H](c2ccc(-c3cccc(O[C@H]4O[C@@H](CO)[C@H](O)[C@@H](O)[C@@H]4O)c3)cc2)N1c1ccc(F)cc1 [Example 95, 4'-{(2S,3R)-1-(4-fluorophenyl)-3-[(3S)-3-(4-fluorophenyl)-3-hydroxypropyl]-4-oxoazetidin-2-yl}biphenyl-3-yl β-L-glucopyranoside] | 57%
14 | O=C(O)c1cccc(-c2ccc([C@@H]3[C@@H](CC[C@H](O)c4ccc(F)cc4)C(=O)N3c3ccc(F)cc3)cc2)c1 [Example 21, 4'-{(2S,3R)-1-(4-fluorophenyl)3-[(3S)-3-(4-fluorophenyl)-3-hydroxypropyl]-4-oxoazetidin-2-yl]biphenyl-3-carboxylic acid] | 68%
15 | COc1ccc(-c2ccc([C@@H]3[C@@H](CC[C@H](O)c4ccc(F)cc4)C(=O)N3c3ccc(F)cc3)cc2)c(OC)c1OC [Example 96, (3R,4S)-1-(4-fluorophenyl)-3-[(3S)-3-(4-fluorophenyl)-3-hydroxypropyl]-4-(2',3',4'-trimethoxybiphenyl-4-yl)azetidin-2-one] | 69%
16 | Cc1ccccc1-c1ccc([C@@H]2[C@@H](CC[C@H](O)c3ccc(F)cc3)C(=O)N2c2ccc(F)cc2)cc1 [Example 98, (3R,4S)-1-(4-fluorophenyl)-3-[(3S)-3-(4-fluorophenyl).3-hydroxypropyl]-4-(2'-methylbiphenyl-4-yl)azetidin-2-one] | 7%

Same assay, conditions: po, Table 2, perorally, 1 mg/kg, 3H levels in serum three hours after 3H-cholesterol, versus vehicle only control

Row | SMILES | inhibition at 1 mg/kg
17 | O=C1[C@H](CC[C@H](O)c2ccc(F)cc2)[C@@H](c2ccc(-c3cccc(O)c3)cc2O)N1c1ccccc1 [Example 42, (3R,4S)-4-(3,3'-Dihydroxybiphenyl-4-yl)-3-[(3S)-3-(4-fluorophenyl)-3-hydroxypropyl]-1-phenylazetidin-2-one] | 87%
18 | O=C1[C@H](CC[C@H](O)c2ccc(F)cc2)[C@@H](c2ccc(-c3cccc(O)c3)s2)N1c1ccccc1 [Example 50, (3R,4S)-3-[(3S)-3-(4-Fluorophenyl)-3-hydroxypropyl]-4-[5-(3-hydroxyphenyl)-2-thienyl]-1-phenylazetidin-2-one] | 27%
19 | O=C1[C@H](CC[C@H](O)c2ccc(F)cc2)[C@@H](c2ccc(-c3cccc([C@@H]4O[C@H](CO)[C@@H](O)[C@H](O)[C@H]4O)c3)cc2)N1c1ccccc1 [Example 64, (1S)-1,5-anhydro-1-(4'-{(2S,3R)-3-[(3S)-3-(4-fluorophenyl)-3-hydroxypropyl]-4-oxo-1-phenylazetidin-2-yl}biphenyl-3-yl)-D-glucitol] | 67%
20 | O=C1[C@H](CC[C@H](O)c2ccc(F)cc2)[C@@H](c2ccc(-c3ccc(S(=O)(=O)O)cc3)cc2O)N1c1ccccc1 [Example 128, Sodium 4'-{(2S,3R)-3-[(3S)-3-(4-fluorophenyl)-3-hydroxypropyl]-4-oxo-1-phenylazetidin-2-yl}-3'-hydroxybiphenyl-4-sulfonate] | 60%
